In patent publication US5488033A, “Treatment to reduce edema” (The Regents of the University of California, priority 1994, dated 1996):
No end group written: not given here.

Assays:
[1] = tested on: cerebral cortex and basal ganglia (brain edema); experiment: Freeze injury of cerebral cortex, water and sodium content as index of brain edema; assay type: in vivo, rat; details: CRF 30 μg/kg s.c. 2×, ± S.E.M., N = 5
Method: In a second set of experiments, the brain surface, namely the cerebral cortex, was injured by freezing and the water and sodium content were measured in the cerebral cortex and in the basal ganglia, a part of the brain away from the freeze zone. The water and sodium content of the brain tissue served as an index of brain edema. After freeze injury, the water and sodium content of the cerebral cortex were evaluated relative to non-frozen tissues. CRF administered in two separate doses of 30 μg/kg subcutaneously, one dose 15 minutes before the injury and the second dose 90 minutes after the first dose, inhibited the two indices of brain edema.
Male SpragueDawley rats, 300-325 g, anesthetized with
ketamineacepromazine, were injected saline or CRF (30 μg/kg s.c.
2×) and injury to cerebral cortex was produced by applying a cold
probe to the skull for 1 min. Brain tissues were obtained 3 hr later and
analyzed for water and sodium content.

[2] = tested on: Freeze Injury to Brain (vascular permeability of brain); experiment: Cold (freeze) injury to rat brain, vascular leakage by Monastral blue staining; assay type: in vivo
Text: An in vivo model of injury to study brain edema has been developed as a reproducible edema model, which has the features of immediate cortical damage followed by the subsequent development of brain edema. This model is described by Chan et al., Brain Research, 277, pp. 329-337 (1983). The model uses rats which are anesthetized. A 2.5 cm incision is made over the sagittal suture and the bone of the right hemisphere exposed. A 60 mm^2 plate attached to a brass cup filled with dry ice-acetone mixture, with a temperature of -50° C., is applied to the rat skull for one minute. The animals are sacrificed at various intervals after the onset of cold-injury. A dye is administered intravenously before the freezing. Cortical slices are then obtained of the brain.
Sixteen male rats were randomly divided into eight pairs and one rat in each pair received either saline or CRF (subcutaneously twice at 30 μg/kg, 30 min and 10 min before cold injury). The animals were anesthetized with sodium pentobarbital, 60 mg/kg intraperitoneally, and injected with Monastral blue, 60 mg/kg intravenously. A cold probe was applied onto the skull for four minutes and the brains taken out one hour after cold injury. The staining of brain tissues with Monastral blue, a colloidal pigment that gets trapped between the albuminal surface of the endothelial cell and the basement membrane, was proportional to the degree of vascular leakage. The results from the first pair are shown as FIG. 1.
The size of the lesion, measured as area in mm^2, and the degree of staining intensity, were quantified using an image-analysis software program called JAVA (Jandel Corporation, San Rafael, Calif.). The stain intensity, given in arbitrary units, was internally calibrated using Monastral blue solutions (1-30 mg/ml) placed on white filter paper. Values are mean ± S.E.M.

[3] = tested on: abdominal muscle wall (vascular leakage after celiotomy); experiment: Vascular leakage after celiotomy (4 cm midline incision of abdominal muscle wall), Monastral blue; assay type: in vivo, rat; details: for Area / Intensity / Lesion Size: tissues 0.5 hour after surgery; for lesion size relative to that of the saline-treated group: celiotomy
Method: Experiments were conducted on male Sprague-Dawley rats 243±15 gm (S.D., Simonsen Labs., Gilroy, Calif.) anesthetized with sodium pentobarbital, 60 mg/kg i.p. Monastral blue, 60 mg/kg i.v., was injected 0.2 ml/100 g, 3 minutes before a 4 cm midline incision through the abdominal muscle wall (celiotomy). Saline or CRF was administered to randomized pairs with N=8 rats per group. The size of the lesion, measured as area in mm^2, and its light intensity, were quantified using the JAVA image-analysis software program. The light intensity, given in arbitrary units, was internally calibrated using Monastral blue solutions (1-30 mg/ml) placed on white filter paper. Values are mean ± S.E.M. FIG. 2 illustrates the respective amount of vascular permeability for one pair of rats (control and treated). Tables III and IV set out data from these experiments.
CRF: injected at various doses subcutaneously 30 minutes
before a 4 cm midline incision, tissues taken 0.5 hour
CRF: 30 μg/kg s.c. injected 2 hour before a 4 cm
midline incision, tissues taken 0.5 hour after surgery

[4] = tested on: vascular leakage produced by PAF-acether; experiment: Vascular leakage produced by PAF-acether injected subcutaneously into the abdomen; assay type: in vivo, rat
Method: CRF: 30 μg/kg s.c. injected 30 minutes before subcutaneous
injection of PAF-acether (1 μg/0.1 ml/rat) into the abdomen;
muscle removed 0.5 hour later.

[5] = tested on: neutropenic rats infected with Pseudomonas; experiment: Neutropenic rat model of sepsis (Pseudomonas infection), survival; assay type: in vivo; details: CRF 100 μg/kg i.v. twice a day for four days after onset of fever; day 11; 9/15; P<0.002 vs saline (100% mortality by day 8)
Text: The neutropenic rat model of sepsis, designed to mimic the systemic inflammatory response syndrome in humans, is described by Collins et al. from The Journal of Infectious Diseases, 159:6 (June 1989) and The Journal of Clinical Investigation, 88:885 (September 1991). […] The animals die from overwhelming infection within 7 to 9 days of infection and examination of the tissues with histological and pathological techniques reveal the characteristic organic manifestations of the systemic inflammatory response syndrome, namely, organ edema and tissue necrosis.
In a typical experiment, 10 rats serving as controls received saline and 15 rats received CRF at a dose of 100 μg/kg intravenously, given twice a day for four days after the onset of fever. At the end of 8 days, all of the animals in the control group were dead (100% mortality). By contrast, 60% (9/15) of the CRF group were still alive at day 11 when the experiment was concluded. The difference between the saline and CRF treated groups were statistically significant (P<0.002).

[6] = injured cerebral cortex, tissue 3 hr after 1 min cold probe
[7] = non-injured basal ganglia, tissue 3 hr after injury
[8] = CRF 30 μg/kg s.c. twice, 30 min and 10 min before cold injury, brains taken 1 hour after injury, mean ± S.E.M.
[9] = CRF 15 μg/kg s.c. 30 minutes before incision
[10] = CRF 30 μg/kg s.c. 30 minutes before incision
[11] = CRF 30 μg/kg s.c. 2 hour before incision
[12] = CRF 60 μg/kg s.c. 30 minutes before incision
[13] = CRF 30 μg/kg s.c. 30 minutes before PAF-acether 1 μg/0.1 ml/rat s.c., muscle removed 0.5 hour later

CRF: 41 amino acid neuropeptide, mammalian corticotropin-releasing factor; stimulates ACTH release from pituitary cells (SEEPPISLDLTFHLLREVLEMARAEQLAQQAHSNRKLMEII; not fully specified; ends and bridges not checked; UniProt P06850 154-194, looked up)
SODIUM, cerebral cortex [1, 6]: 271 ± 8 mEg/kg dry wt
WATER CONTENT, cerebral cortex [1, 6]: 77 ± 4%
SODIUM, basal ganglia [1, 7]: 215 ± 9 mEg/kg dry wt
WATER CONTENT, basal ganglia [1, 7]: 76 ± 1%
Area [2, 8]: 20.8 ± 1.2 mm^2
Intensity (staining intensity) [2, 8]: 2.0 ± 0.05 arbitrary units
Lesion Size [2, 8]: 43 ± 3
lesion size relative to that of the saline-treated group ([2]; brain cold injury, CRF 30 μg/kg s.c. twice): 44%
correct assignment of brains to saline or CRF group by an observer unaware of pretreatment ([2]; eight pairs of rats, more damaged vs less damaged brain): 8 out of 8
Area [3, 9]: 505 ± 16 mm^2
Intensity [3, 9]: 2.0 ± 0.03 arbitrary units
Lesion Size [3, 9]: 1031 ± 44
Area [3, 10]: 361 ± 18 mm^2
Intensity [3, 10]: 1.9 ± 0.05 arbitrary units
Lesion Size [3, 10]: 676 ± 47
Area [3, 11]: 477 ± 31 mm^2
Intensity [3, 11]: 1.9 ± 0.03 arbitrary units
Lesion Size [3, 11]: 919 ± 51
Area [3, 12]: 257 ± 3 mm^2
Intensity [3, 12]: 1.8 ± 0.05 arbitrary units
Lesion Size [3, 12]: 468 ± 19
lesion size relative to that of the saline-treated group [3, 9]: 63%
lesion size relative to that of the saline-treated group [3, 10]: 42%
lesion size relative to that of the saline-treated group ([3]; CRF 30 μg/kg s.c. 2 hours before injury): 59%
lesion size relative to that of the saline-treated group [3, 12]: 29%
muscle lesion size relative to that of the saline-treated control group ([4]; CRF 30 μg/kg s.c. 30 minutes before PAF-acether): 44%
Area [4, 13]: 188 ± 16 mm^2
Intensity [4, 13]: 1.4 ± 0.05
Lesion Size [4, 13]: 260 ± 26
animals still alive (survival) [5]: 60%
